Measurements reported in ChEMBL document CHEMBL5053524, “Novel Electrophilic Warhead Targeting a Triple-Negative Breast Cancer Driver in Live Cells Revealed by "Inverse Drug Discovery"” (J Med Chem, 2021).
Blank lines part the entries; values can stand above or below the compound they belong to.

Legend:
Bcap37 = assay: Antiproliferative activity against human BcaP37 cells assessed as cell viability incubated for 24 hrs by CCk8 assay; type: functional, cell-based; details: Bcap37, 24 h
[1] = biological target: Glutathione S-transferase P (Homo sapiens, UniProt P09211); assay: Inhibition of recombinant GSTP1 (unknown origin) using GSH substrate
MDA-MB-231 = assay: Antiproliferative activity agaisnt human MDA-MB-231 cells assessed as cell viability incubated for 24 hrs by CCK8 assay; type: functional, cell-based; details: MDA-MB-231, 24 h
MDA-MB-468 [2] = assay: Antiproliferative activity agaisnt human MDA-MB-468 cells assessed as cell viability incubated for 24 hrs by CCK8 assay; type: functional, cell-based; details: MDA-MB-468, 24 h
MCF7 = assay: Antiproliferative activity agaisnt human MCF7 cells assessed as cell viability incubated for 24 hrs by CCK8 assay; type: functional, cell-based; details: MCF7, 24 h
MDA-MB-453 = assay: Antiproliferative activity agaisnt human MDA-MB-453 cells assessed as cell viability incubated for 24 hrs by CCK8 assay; type: functional, cell-based; details: MDA-MB-453, 24 h
MDA-MB-468 [3] = assay: Antiproliferative activity agaisnt human MDA-MB-468 cells assessed as cell viability incubated for 24 hrs in presence of GSTP1 siRNA by CCK8 assay; type: functional, cell-based; details: MDA-MB-468, 24 h
MDA-MB-468 [4] = assay: Antiproliferative activity agaisnt human MDA-MB-468 cells assessed as cell viability incubated for 24 hrs in presence of scrambled siRNA by CCK8 assay; type: functional, cell-based; details: MDA-MB-468, 24 h

Chain of Glutathione S-transferase P (P09211 whole entry): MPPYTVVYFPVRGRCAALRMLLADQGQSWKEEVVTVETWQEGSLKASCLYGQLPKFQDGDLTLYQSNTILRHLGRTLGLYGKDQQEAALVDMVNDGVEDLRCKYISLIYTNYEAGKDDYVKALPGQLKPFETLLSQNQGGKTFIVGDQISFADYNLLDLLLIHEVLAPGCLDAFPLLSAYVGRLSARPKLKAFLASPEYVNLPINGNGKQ

Structure (SMILES): C#CCOc1ccc(-c2c(N(CC)CC)c2=O)cc1
IC50 (Bcap37): 46.1 µM

IC50 [1]: 1.18 µM
Structure (SMILES): C#CCOC(=O)CCCCc1cc1=O
IC50 (Bcap37): 10.6 µM

IC50 [1]: 0.36 µM
Structure (SMILES): O=c1cc1-c1ccc2ccccc2c1

Structure (SMILES): C#CCOc1ccc(-c2c(-c3ccc(OCC#C)cc3)c2=O)cc1
IC50 (Bcap37): 26.1 µM

IC50 [1]: 0.73 µM
Structure (SMILES): O=c1cc1-c1ccc(Oc2ccccc2)cc1

IC50 [1]: 1.64 µM
Structure (SMILES): C#CCOc1ccc(-c2cc2=O)cc1
IC50 (Bcap37): 45 µM

IC50 [1]: 0.73 µM
IC50 (MDA-MB-231): 5.02 µM
IC50 (MDA-MB-468 [2]): 3.47 µM
IC50 (MCF7): 12.5 µM
IC50 (MDA-MB-453): 11 µM
IC50 (MDA-MB-468 [3]): 5.02 µM
IC50 (MDA-MB-468 [4]): 3.46 µM
Structure (SMILES): O=c1cc1-c1ccc(OCc2ccccc2)cc1

IC50 [1]: 3.2 µM
Structure (SMILES): O=c1cc1-c1ccc(OCc2ccc(-c3ccccc3)cc2)cc1

IC50 [1]: 1.99 µM
IC50 (MDA-MB-231): 6.14 µM
IC50 (MDA-MB-468 [2]): 4.48 µM
IC50 (MCF7): 14.7 µM
IC50 (MDA-MB-453): 30 µM
IC50 (MDA-MB-468 [3]): 20.1 µM
IC50 (MDA-MB-468 [4]): 4.47 µM
Structure (SMILES): COc1ccc2cc(-c3cc3=O)ccc2c1
